The values that follow come from patent US20250163043A1 (TRANSTHERA SCIENCES (NANJING), INC., priority 2021, published 2025).

The target of experiment [1] is T1, CDK9/CycT1 (Homo sapiens, UniProt P50750). The experiment can be described thus: Off-chip mobility shift assay (MSA) on CDK9/CycT1. The experiment is classed as biochemical. On the set-up: Full-length human CDK9 [1-372(end) amino acids of; host or cells: baculovirus expression system. The note with it: 4-point concentration (0.0016, 0.008, 0.04, 0.2 uM), ATP 10 μM, reaction time 5 hours, read-out: CDK9/CycT1/nM (inhibitory activity). Here is the method: Prepare 100× concentrated Test compound stock solutions with DMSO. Then, Dilute the solution 25 times with Assay Buffer (20 mM HEPES, 0.01% Triton X-100, 2 mM DTT, pH7.5) to prepare 4× test compound solutions.
Test compounds were evaluated at 4-point concentration (0.0016, 0.008, 0.04, 0.2 uM). • 1) Mix 5 μL of 4× test compound solution with 5 μL of 4× substrate/ATP/Metal solution and 10 μL of 2× kinase solution in 384-well polypropylene plate. Incubate for 5 hours at room temperature. • 2) Add 70 μL of Termination Buffer (QuickScout Screening Assist MSA; Carna Biosciences) to stop the reaction. • 3) Separate and detect unphosphorylated/phosphorylated substrate peptides in the reactant using LabChip system (Perkin Elmer). • 4) Evaluate kinase reaction from product ratio (P/(P+S)) calculated by peak height of unphosphorylated substrate(S) and peak height of phosphorylated substrate (P).

Experiment [2] deals with T1, CDK9/CycT1. Description: ADP-Glo kinase assay on CDK enzymatic activity, CDK9/CycT1. It is filed as biochemical. The note with it: 10 concentrations from 10 μM, 4-fold, 60 min room temperature. A digest of the protocol:
(§1)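 Enzyme activity was measured by ADP-Glo luminescence following 60 min turnover of CDK tide peptide at room temperature. Compounds spanned ten 4-fold dilutions from 10 μM final, with 0.5% DMSO.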

The target of the next experiment is CDK1/CycE1 (Homo sapiens, UniProt P06493). The experiment can be described thus: ADP-Glo kinase assay on CDK enzymatic activity, CDK1/CycE1. The experiment is classed as biochemical. As to conditions: ADP-Glo; 10 concentrations from 10 μM, 4-fold; 60 min room temperature; read-out: CDK1/CycE1/nM (IC50). A digest of the protocol: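 Compounds in 10-point 4-fold dilutions from 10 μM final, preincubated 10 min with kinase, then substrate/ATP added; 60 min reaction at room temperature. ADP-Glo luminescence read.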
A general note: In ADP-Glo the light output rises with the ADP produced.

A further experiment concerns the target CDK2/CycA2 (Homo sapiens, UniProt P24941). Description: ADP-Glo kinase assay on CDK enzymatic activity, CDK2/CycA2. The note with it: 10 concentrations from 10 μM, 4-fold, 60 min room temperature. The experiment is classed as biochemical. Put shortly: as §1
In another experiment the target is CDK3/CycE1 (Homo sapiens, UniProt Q00526). The experiment can be described thus: ADP-Glo kinase assay on CDK enzymatic activity, CDK3/CycE1. It is filed as biochemical. As to conditions: 10 concentrations from 10 μM, 4-fold, 60 min room temperature. Put shortly: as §1
Another experiment has as its target CDK5/p25NCK (Homo sapiens, UniProt Q00535). The experiment can be described thus: ADP-Glo kinase assay on CDK enzymatic activity, CDK5/p25NCK. As to conditions: 10 concentrations from 10 μM, 4-fold, 60 min room temperature. The experiment is classed as biochemical. A digest of the protocol:
as §1

For experiment [3], the system named is MV-4-11 (human myelomonocytic leukemia cells). Description: CCK-8 cell proliferation assay, MV-4-11. It is filed as cell-based. The note with it: MV4-11, 24 h incubation, 11 concentrations from 5000 nM, 3-fold, read-out: MV-4-11 cell proliferation IC50 (class). (Formazan colour is commonly taken as a measure of viable cells.)

Bounds are passed on as bounds.

Sequence of CDK3/CycE1 (Q00526 whole entry, species assumed): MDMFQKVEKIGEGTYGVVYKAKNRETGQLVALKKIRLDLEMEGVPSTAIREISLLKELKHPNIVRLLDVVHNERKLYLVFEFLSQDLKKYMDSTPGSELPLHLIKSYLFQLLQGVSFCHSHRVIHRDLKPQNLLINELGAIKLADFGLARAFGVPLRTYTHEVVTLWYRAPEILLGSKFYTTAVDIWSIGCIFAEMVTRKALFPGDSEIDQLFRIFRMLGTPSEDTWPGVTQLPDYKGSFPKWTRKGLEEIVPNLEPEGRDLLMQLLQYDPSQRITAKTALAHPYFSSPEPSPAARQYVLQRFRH
Sequence of CDK3/CycE1 (P24864 whole entry partner, species assumed): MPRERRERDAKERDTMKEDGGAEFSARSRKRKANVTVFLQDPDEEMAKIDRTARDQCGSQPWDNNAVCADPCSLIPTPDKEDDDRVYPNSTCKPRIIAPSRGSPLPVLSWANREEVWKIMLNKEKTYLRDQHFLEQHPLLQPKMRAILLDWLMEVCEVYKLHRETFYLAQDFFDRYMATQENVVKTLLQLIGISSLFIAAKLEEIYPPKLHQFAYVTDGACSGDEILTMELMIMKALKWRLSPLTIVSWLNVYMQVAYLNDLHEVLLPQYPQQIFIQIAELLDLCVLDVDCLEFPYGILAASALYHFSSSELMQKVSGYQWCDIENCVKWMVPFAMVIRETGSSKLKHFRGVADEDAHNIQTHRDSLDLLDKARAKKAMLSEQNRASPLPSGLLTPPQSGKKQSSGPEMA
T1 sequence (P50750 whole entry): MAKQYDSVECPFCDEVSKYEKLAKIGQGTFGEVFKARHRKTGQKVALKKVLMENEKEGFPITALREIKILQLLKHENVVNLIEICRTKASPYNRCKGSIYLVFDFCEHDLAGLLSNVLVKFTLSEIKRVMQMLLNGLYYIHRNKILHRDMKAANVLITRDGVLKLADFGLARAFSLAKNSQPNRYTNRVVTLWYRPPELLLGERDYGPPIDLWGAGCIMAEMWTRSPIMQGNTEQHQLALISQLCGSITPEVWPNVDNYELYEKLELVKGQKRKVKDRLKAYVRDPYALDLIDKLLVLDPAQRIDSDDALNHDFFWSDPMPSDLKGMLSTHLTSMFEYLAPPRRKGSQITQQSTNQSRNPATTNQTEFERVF
T1 sequence (O60563 whole entry partner): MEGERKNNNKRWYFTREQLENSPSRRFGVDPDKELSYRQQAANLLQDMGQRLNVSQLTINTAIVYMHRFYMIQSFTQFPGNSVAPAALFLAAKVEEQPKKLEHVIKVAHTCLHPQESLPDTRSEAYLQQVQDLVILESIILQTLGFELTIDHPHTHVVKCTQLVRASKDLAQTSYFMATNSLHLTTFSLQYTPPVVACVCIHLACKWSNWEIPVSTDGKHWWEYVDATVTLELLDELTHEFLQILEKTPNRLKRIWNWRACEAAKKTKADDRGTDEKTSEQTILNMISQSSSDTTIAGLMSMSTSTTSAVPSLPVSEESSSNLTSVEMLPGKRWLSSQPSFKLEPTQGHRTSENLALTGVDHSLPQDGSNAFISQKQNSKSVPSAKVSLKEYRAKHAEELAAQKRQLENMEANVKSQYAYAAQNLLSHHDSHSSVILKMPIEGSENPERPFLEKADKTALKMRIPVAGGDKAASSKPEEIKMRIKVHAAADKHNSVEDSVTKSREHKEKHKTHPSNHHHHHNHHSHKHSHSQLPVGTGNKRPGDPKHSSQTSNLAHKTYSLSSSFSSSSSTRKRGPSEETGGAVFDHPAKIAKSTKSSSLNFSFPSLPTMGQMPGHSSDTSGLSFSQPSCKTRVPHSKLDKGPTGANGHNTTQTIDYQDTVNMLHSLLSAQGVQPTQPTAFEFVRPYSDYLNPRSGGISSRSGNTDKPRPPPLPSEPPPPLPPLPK
Sequence of CDK1/CycE1 (P06493 whole entry, species assumed): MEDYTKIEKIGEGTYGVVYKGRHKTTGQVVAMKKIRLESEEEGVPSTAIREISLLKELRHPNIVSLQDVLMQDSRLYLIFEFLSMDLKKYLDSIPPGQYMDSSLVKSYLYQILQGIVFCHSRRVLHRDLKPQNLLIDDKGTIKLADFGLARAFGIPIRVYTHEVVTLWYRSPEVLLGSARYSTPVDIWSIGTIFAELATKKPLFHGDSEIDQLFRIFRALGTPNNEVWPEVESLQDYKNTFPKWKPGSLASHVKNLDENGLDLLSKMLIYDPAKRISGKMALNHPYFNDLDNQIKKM
Sequence of CDK1/CycE1 (P24864 whole entry partner, species assumed): as the sequence (P24864 whole entry partner, species assumed) above
Sequence of CDK5/p25NCK (Q00535 whole entry, species assumed): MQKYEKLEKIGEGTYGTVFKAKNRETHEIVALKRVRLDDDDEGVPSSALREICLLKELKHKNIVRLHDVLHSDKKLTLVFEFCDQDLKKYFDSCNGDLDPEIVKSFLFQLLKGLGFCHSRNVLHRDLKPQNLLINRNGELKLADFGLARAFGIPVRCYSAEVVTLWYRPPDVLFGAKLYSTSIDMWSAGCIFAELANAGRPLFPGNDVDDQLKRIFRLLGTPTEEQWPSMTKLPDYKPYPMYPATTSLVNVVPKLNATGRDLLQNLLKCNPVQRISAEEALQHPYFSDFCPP
Sequence of CDK5/p25NCK (Q15078 99-307 partner limits assumed, species assumed): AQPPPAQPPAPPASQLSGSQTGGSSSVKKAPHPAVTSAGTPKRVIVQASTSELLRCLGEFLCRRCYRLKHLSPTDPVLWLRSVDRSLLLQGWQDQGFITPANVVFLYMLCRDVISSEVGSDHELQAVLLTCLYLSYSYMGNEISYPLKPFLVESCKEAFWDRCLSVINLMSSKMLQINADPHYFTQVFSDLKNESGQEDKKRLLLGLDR

`CC(C)Nc1nc([C@@H](C)O)cc2cnc(NC[C@H]3CC[C@H](N)CC3)nc12` [Compound 82, (R)-1-(2-((((1r,4R)-4-aminocyclohexyl)methyl)amino)-8-(isopropylamino)pyrido[3,4-d]pyrimidin-6-yl)ethan-1-ol]: the IC50 at CDK9/CycT1 [1] came out at 63 nM.

Consider `C[C@@H](O)c1nc(NC(C)(C)C)c2nc(N[C@H]3CC[C@H](O)CC3)ncc2c1Cl` [Compound 102, (1R,4r)-4-((8-(tert-butylamino)-5-chloro-6-((R)-1-hydroxyethyl)pyrido[3,4-d]pyrimidin-2-yl)amino)cyclohexan-1-ol], for which the IC50 on CDK9/CycT1 [1] was 10 nM.

On to `CC(C)Nc1nc([C@@H](C)O)cc2cnc(N[C@H]3CC[C@H](NC4CCOCC4)CC3)nc12` [Compound 74, (R)-1-(8-(isopropylamino)-2-(((1r,4R)-4-((tetrahydro-2H-pyran-4-yl)amino)cyclohexyl)amino)pyrido[3,4-d]pyrimidin-6-yl)ethan-1-ol], for which the IC50 at CDK9/CycT1 [1] is 19 nM.

Regarding `CC(C)Nc1nc(C#N)cc2cnc(NC3CCNCC3)nc12` [Compound 114, 8-(isopropylamino)-2-(piperidin-4-ylamino)pyrido[3,4-d]pyrimidine-6-carbonitrile], the IC50 on CDK9/CycT1 [2] was 9 nM; on CDK1/CycE1, 216 nM; at CDK2/CycA2, 504 nM; against CDK3/CycE1, 413 nM; against CDK5/p25NCK, 1170 nM; in experiment [3], 400 to 1000 nM.

For the compound `CC(C)Nc1nccc2cnc(N[C@H]3CC[C@H](O)CC3)nc12` [Compound 89, (1r,4r)-4-((8-(isopropylamino)pyrido[3,4-d]pyrimidin-2-yl)amino)cyclohexan-1-ol], on CDK9/CycT1 [1], the IC50 amounted to 24 nM.

`CC(C)Nc1nc([C@@H](C)O)cc2cnc(N[C@H]3CC[C@H](NC4COC4)CC3)nc12` [Compound 80, (R)-1-(8-(isopropylamino)-2-(((1r,4R)-4-(oxetan-3-ylamino)cyclohexyl)amino)pyrido[3,4-d]pyrimidin-6-yl)ethan-1-ol]: the IC50 at CDK9/CycT1 [1] was 12 nM.

Consider `CC(C)Nc1nc([C@@H](C)O)cc2cnc(NCC3CCN(S(C)(=O)=O)CC3)nc12` [Compound 68, (R)-1-(8-(isopropylamino)-2-(((1-(methylsulfonyl)piperidin-4-yl)methyl)amino)pyrido[3,4-d]pyrimidin-6-yl)ethan-1-ol], for which, at CDK9/CycT1 [1], the IC50 came out at 82 nM.

Regarding `CC(C)Nc1nc([C@@H](C)O)cc2cnc(N[C@H]3CC[C@H](NC(=O)CN(C)C)CC3)nc12` [Compound 63, 2-(dimethylamino)-N-((1R,4r)-4-((6-((R)-1-hydroxyethyl)-8-(isopropylamino)pyrido[3,4-d]pyrimidin-2-yl)amino)cyclohexyl)acetamide], the IC50 at CDK9/CycT1 [1] came out at 14 nM.

With `C#Cc1cc2cnc(N[C@H]3CC[C@H](O)CC3)nc2c(NC(C)C)n1` [Compound 93, (1r,4r)-4-((6-ethynyl-8-(isopropylamino)pyrido[3,4-d]pyrimidin-2-yl)amino)cyclohexan-1-ol], the IC50 on CDK9/CycT1 [1] was found to be 7 nM.

`CC(C)Nc1nc(C#N)cc2cnc(N[C@H]3CC[C@H](O)CC3)nc12` [Compound 94, 2-(((1r,4r)-4-hydroxycyclohexyl)amino)-8-(isopropylamino)pyrido[3,4-d]pyrimidine-6-carbonitrile]: the IC50 at CDK9/CycT1 [1] came to 4 nM.

For the compound `CC(C)Nc1nc([C@@H](C)O)cc2cnc(NCC3CCCN(S(C)(=O)=O)C3)nc12` (stereo partly drawn) [Compound 70, (1R)-1-(8-(isopropylamino)-2-(((1-(methylsulfonyl)piperidin-3-yl)methyl)amino)pyrido[3,4-d]pyrimidin-6-yl)ethan-1-ol], the IC50 at CDK9/CycT1 [1] is 61 nM.

On to `CC(C)Nc1nc(CO)cc2cnc(N[C@H]3CC[C@H](O)CC3)nc12` [Compound 97, (1r,4r)-4-((6-(hydroxymethyl)-8-(isopropylamino)pyrido[3,4-d]pyrimidin-2-yl)amino)cyclohexan-1-ol], for which the IC50 on CDK9/CycT1 [1] was determined as 17 nM.

As to `CC(C)Nc1nc([C@@H](C)O)cc2cnc(N[C@H]3CC[C@H](N4CCN(C)CC4)CC3)nc12` [Compound 67, (R)-1-(8-(isopropylamino)-2-(((1r,4R)-4-(4-methylpiperazin-1-yl)cyclohexyl)amino)pyrido[3,4-d]pyrimidin-6-yl)ethan-1-ol], the IC50 on CDK9/CycT1 [1] is 10 nM.

On to `CC(=O)N[C@@H]1CCC[C@H](C(=O)Nc2cc3c(N4CC[C@@](C)(O)C4)nc(C#N)cc3cn2)C1` [Compound 22, (1S,3R)-3-acetamido-N-(7-cyano-5-((R)-3-hydroxy-3-methylpyrrolidin-1-yl)-2,6-naphthyridin-3-yl)cyclohexane-1-carboxamide], for which the IC50 against CDK9/CycT1 [2] is 17 nM; against CDK2/CycA2 it was 4510 nM; at CDK3/CycE1 it was 1910 nM; against CDK5/p25NCK it was greater than 10000 nM; in experiment [3], 400 to 1000 nM.

In the case of `CC(C)Nc1nc(C#N)cc2cnc(NC(=O)[C@H]3CCC[C@H](N)C3)cc12` [Compound 27, (1S,3S)-3-amino-N-(7-cyano-5-(isopropylamino)-2,6-naphthyridin-3-yl)cyclohexane-1-carboxamide], the IC50 was 51 nM against CDK9/CycT1 [2]; 2520 nM at CDK2/CycA2; 1630 nM against CDK3/CycE1; 3960 nM against CDK5/p25NCK; 400 to 1000 nM in experiment [3].

Take `CC(C)Nc1nc(C#N)cc2cnc(N[C@H]3CCNC3)cc12` [Compound 31, (S)-1-(isopropylamino)-7-(pyrrolidin-3-ylamino)-2,6-naphthyridine-3-carbonitrile]: the IC50 against CDK9/CycT1 [2] is 4 nM; against CDK2/CycA2, 594 nM; against CDK3/CycE1, 1300 nM; against CDK5/p25NCK, 1480 nM; in experiment [3] it was 400 to 1000 nM.

Consider `CC(C)Nc1nc(C(F)F)cc2cnc(N[C@H]3CC[C@@H](N)C3)cc12` [Compound 53, N7-((1S,3R)-3-aminocyclopentyl)-3-(difluoromethyl)-N^1-isopropyl-2,6-naphthyridine-1,7-diamine], for which the IC50 on CDK9/CycT1 [2] is 2 nM; on CDK1/CycE1, 709 nM; against CDK2/CycA2, 161 nM; on CDK3/CycE1, 315 nM; against CDK5/p25NCK, 549 nM; in experiment [3], 400 to 1000 nM.

On to `CC(C)Nc1nc(C#N)cc2cnc(N[C@H]3CC[C@H](C)NC3)nc12` [Compound 107, 8-(isopropylamino)-2-(((3S,6S)-6-methylpiperidin-3-yl)amino)pyrido[3,4-d]pyrimidine-6-carbonitrile], for which the IC50 at CDK9/CycT1 [2] was 18 nM; on CDK1/CycE1 it was 947 nM; on CDK2/CycA2, 443 nM; against CDK3/CycE1, 831 nM; against CDK5/p25NCK, 435 nM; in experiment [3], 400 to 1000 nM.

Consider `C[C@@H](Nc1nc(C#N)cc2cnc(N[C@H]3CCCNC3)cc12)c1ccccc1` [Compound 147, 1-(((R)-1-phenylethyl)amino)-7-(((S)-piperidin-3-yl)amino)-2,6-naphthyridine-3-carbonitrile], for which the IC50 against CDK9/CycT1 [2] was 3 nM; on CDK1/CycE1 it was 158 nM; against CDK2/CycA2, 531 nM; on CDK3/CycE1 it was 215 nM; against CDK5/p25NCK, 2230 nM; in experiment [3] it was 400 to 1000 nM.

Regarding `CC(C)Nc1nc(C#N)cc2cnc(N[C@@H]3CN[C@H](CO)C3)cc12` [Compound 37, 7-(((3S,5S)-5-(hydroxymethyl)pyrrolidin-3-yl)amino)-1-(isopropylamino)-2,6-naphthyridine-3-carbonitrile], the IC50 was 5 nM against CDK9/CycT1 [2]; 520 nM on CDK2/CycA2; 1130 nM against CDK3/CycE1; 941 nM on CDK5/p25NCK; greater than 1000 nM in experiment [3].

For `CC(=O)N[C@@H]1CC[C@H](Nc2cc3c(NC(C)C)nc(C#N)cc3cn2)C1` [Compound 47, N-((1R,3S)-3-((7-cyano-5-(isopropylamino)-2,6-naphthyridin-3-yl)amino)cyclopentyl)acetamide], the IC50 against CDK9/CycT1 [2] was 17 nM; against CDK2/CycA2, 494 nM; against CDK3/CycE1, 987 nM; against CDK5/p25NCK, 1050 nM; in experiment [3], 400 to 1000 nM.

Consider `CC(=O)N[C@H]1CC[C@H](Nc2ncc3cc(C#N)nc(NC(C)C)c3n2)C1` [Compound 46, N-((1S,3S)-3-((6-cyano-8-(isopropylamino)pyrido[3,4-d]pyrimidin-2-yl)amino)cyclopentyl)acetamide], for which the IC50 against CDK9/CycT1 [2] is 3 nM; against CDK2/CycA2, 33 nM; against CDK3/CycE1 it was 271 nM; against CDK5/p25NCK it was 72 nM; in experiment [3], 400 to 1000 nM.
